Reference: patent US20060121449A1, “Method for selection of compounds which inhibit clonal cell growth and use thereof” (priority 2002, published 2006)
Several values for one entry are separate records, joined by “and”; a condition that tells them apart may be missing. Equal values may be shown once. Entries after “also recorded” stand apart in the source; their conditions may differ. Read-outs that look alike come from different tables or passages of the source.

How the values were obtained:
Ehrlich ascites tumour = conditions: Exp 18, suboptimal (moderate) dose alone, started the day after transplantation
Procedure: Tumour cells harvested from ascitic mouse were mainly solitary.
The experiment describes transplantation of the malignant mouse Ehrlich ascites tumour to two adult male mice (NMRI/Bom). Each of them received 100000 cells intraperitonally. One mouse was treated two times a week with 4-OH-OPB intraperitonally.
Cells were injected 90 minutes after the addition of 4-OH-OPB to the suspension. The control received the same cell suspension without 4-OH-OPB.
At the same time, dilutions of 4-OH-OPB were injected intraperitonally to the transplanted mice in order to find the smallest active dose.
The cells from ascites in the untreated control mouse was frozen on serum with 10% DMSO. The cells were thawed in water of 37° C., diluted in serum, and pelleted by low speed centrifugation after the addition of 2 ml FBS, to remove DMSO.
Each animal received such cells suspended in portions of 1 ml in RPMI (pH˜6.9).
The frozen and thawed Ehrlich ascites cells are diluted in a volume of 1 ml RPMI (pH˜6.9) for each animal. No calf serum was added to the medium to avoid immunisation of the mice.
Cell number: 90000 tumour cells in 0.7 ml RPMI were injected intraperitonally to each animal.
The total cell number in the ampoule was 7.5 million cells. The cells were thawed, and 2 ml FBS was added before low speed centrifugation. […] Than separate vessels were prepared for each animal. The cell tube for animal number 3 received Colchicine as indicated in the table on day 0 one hour before the cells were injected.
After mixing the same volume was transferred from this tube to the last tube.
The content of the last two tubes was injected intraperitonally to each of the mice number 1 and 2 respectively.

[1] = system: polyoma virus transformed BHK21/c13 cells, line S100T1; test: Collocation inhibition test: clonal growth in sparsely and densely seeded areas of a cell density gradient of S100T1 cells in soft agar (Exp 13, 17, 19-26); conditions: for Growth of treated wells with smallest cell number: 42000 cells/ml; for Growth in low density (sparsely seeded) areas of treated wells: 125000-375000 cells/ml; for Significance: Exp 17 day 14; for Resulting clonal growth of treated cultures: Experiment 26;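 as to all read-outs here: soft agar cultures in 24-well plates with a cell density gradient in the top layer, compounds applied from DMSO stocks, clonal growth scored in sparse versus dense areas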
[2] = Exp 13, 4-OH-OPB 1-3 μM, Colchicine 0.01-0.1 μM
[3] = Exp 13, Low inhibitor conc. (4-OH—OPB 1 μM, Colchicine 10 nM), H: high cell density area
[4] = Exp 13, Low inhibitor conc. (4-OH—OPB 1 μM, Colchicine 10 nM), L: low cell density area
[5] = Exp 13, Medium inhibitor conc. (4-OH—OPB 3 μM, Colchicine 33 nM), H: high cell density area
[6] = Exp 13, Medium inhibitor conc. (4-OH—OPB 3 μM, Colchicine 33 nM), L: low cell density area
[7] = Exp 19, 120000 S100T1 cells/well

CCCCC1(O)C(=O)N(c2ccccc2)N(c2ccc(O)cc2)C1=O (stereo not drawn) [4-OH-OPB, 4-butyl-4-hydroxy-2(p-hydroxyphenyl)-1-phenyl-3,5-pyrazolidinedione]
Rescue of mice from transplanted Ehrlich tumour (Ehrlich ascites tumour): missing cure
Rescue of mice from transplanted Ehrlich tumour (Ehrlich ascites tumour; listed as 4-OH—OPB): not rescued. Colchicine alone in high dose did
Growth in locations with high cell density [1, 2]: did not inhibit clonal growth
Growth in locations with low cell density (sparsely seeded cells) [1, 2]: full inhibition on clonal growth of sparsely seeded cells; also recorded: inhibited growth in locations with low cell density even when using low doses
Growth, summary of results after 3 days incubation [1, 3]: +++
Growth, summary of results after 4 days incubation [1, 3]: +++
Growth, summary of results after 3 days incubation [1, 4]: +−
Growth, summary of results after 4 days incubation [1, 4]: +−
Growth, summary of results after 3 days incubation [1, 5]: +++
Growth, summary of results after 4 days incubation [1, 5]: +++
Growth, summary of results after 3 days incubation [1, 6]: −
Growth, summary of results after 4 days incubation [1, 6]: −
Effect on growth in high- and low-density areas ([1]; Exp 17, 144000 S100T1 cells/well): good growth of colonies in high-density areas, but no growth in low-density areas
Clonal growth, results read on the day 14 ([1]; Exp 17, a: close to densely seeded cell areas, Low: Colchicine 0.1, Podophyllotoxin 0.3, Etoposide 20, 4-OH—OPB 0.67 μM in wells, DMSO 1.16 μl): ++
Clonal growth, results read on the day 14 ([1]; Exp 17, a: close to densely seeded cell areas, Medium: Colchicine 0.3, Podophyllotoxin 0.9, Etoposide 60, 4-OH—OPB 2 μM in wells, DMSO 6.8 μl): ++
Clonal growth, results read on the day 14 ([1]; Exp 17, b: sparsely seeded areas in the same agar culture, High: Colchicine 1, Podophyllotoxin 3, Etoposide 200, 4-OH—OPB 6.7 μM in wells, DMSO 29.2 μl): −
Clonal growth, results read on the day 14 ([1]; Exp 17, b: sparsely seeded areas in the same agar culture, Low: Colchicine 0.1, Podophyllotoxin 0.3, Etoposide 20, 4-OH—OPB 0.67 μM in wells, DMSO 1.16 μl): +
Clonal growth, results read on the day 14 ([1]; Exp 17, b: sparsely seeded areas in the same agar culture, Medium: Colchicine 0.3, Podophyllotoxin 0.9, Etoposide 60, 4-OH—OPB 2 μM in wells, DMSO 6.8 μl): −
Effect on growth in densely seeded areas [1, 7]: no significant inhibition
Inhibition of growth in sparsely seeded areas [1, 7]: significant at all concentrations
Clonal growth after 48 hours incubation ([1]; Exp 19, high concentration, H: high cell density part of the gradient): ++
Clonal growth after 48 hours incubation ([1]; Exp 19, high concentration, L: low cell density part of the gradient): −
Clonal growth after 48 hours incubation ([1]; Exp 19, low concentration (exact conc. only in figure), H: high cell density part of the gradient): ++
Clonal growth after 48 hours incubation ([1]; Exp 19, low concentration, L: low cell density part of the gradient): −
Clonal growth after 48 hours incubation ([1]; Exp 19, medium concentration, H: high cell density part of the gradient): ++
Clonal growth after 48 hours incubation ([1]; Exp 19, medium concentration, L: low cell density part of the gradient): −
Concentration with no significant growth inhibition on denser populated areas ([1]; Exp 20): 1 to 6 µM and 1 to 18 µM
Inhibiting effect on densely seeded areas, higher doses (6-18 μM) ([1]; Exp 20): small or moderate
Inhibiting effect on densely seeded areas, low doses (1 μM) ([1]; Exp 20): abscent
Clonal growth after 48 hours ([1]; Exp 20, 4-OH—OPB 1 μM, cell number High 225000 (375′/ml), H: high cell density part): +++
Clonal growth after 48 hours ([1]; Exp 20, 4-OH—OPB 1 μM, cell number High 225000 (375′/ml), L: low cell density part): −
Clonal growth after 48 hours ([1]; Exp 20, 4-OH—OPB 1 μM, cell number Medium 75000 (125′/ml), H: high cell density part): ++(+)
Clonal growth after 48 hours ([1]; Exp 20, 4-OH—OPB 1 μM, cell number Medium 75000 (125′/ml), L: low cell density part): −
Clonal growth after 48 hours ([1]; Exp 20, 4-OH—OPB 6 μM, cell number High 225000 (375′/ml), H: high cell density part): +
Clonal growth after 48 hours ([1]; Exp 20, 4-OH—OPB 6 μM, cell number High 225000 (375′/ml), L: low cell density part): −
Clonal growth after 48 hours ([1]; Exp 20, 4-OH—OPB 6 μM, cell number Medium 75000 (125′/ml), H: high cell density part): +
Clonal growth after 48 hours ([1]; Exp 20, 4-OH—OPB 6 μM, cell number Medium 75000 (125′/ml), L: low cell density part): −
Clonal growth after 48 hours ([1]; Exp 20, 4-OH—OPB 18 μM, cell number High 225000 (375′/ml), H: high cell density part): +
Clonal growth after 48 hours ([1]; Exp 20, 4-OH—OPB 18 μM, cell number High 225000 (375′/ml), L: low cell density part): −
Clonal growth after 48 hours ([1]; Exp 20, 4-OH—OPB 18 μM, cell number Medium 75000 (125′/ml), H: high cell density part): +
Clonal growth after 48 hours ([1]; Exp 20, 4-OH—OPB 18 μM, cell number Medium 75000 (125′/ml), L: low cell density part): −
Growth of treated wells with smallest cell number ([1]; Exp 20): did not grow even in dense areas
Growth of treated wells with smallest cell number ([1]; Exp 20, listed as 4-OH—OPB): Low cell numbers, 42000 cells/ml gave no
Growth in low density (sparsely seeded) areas of treated wells ([1]; Exp 20): very strong inhibition of growth
Growth in low density (sparsely seeded) areas of treated wells ([1]; Exp 20, listed as 4-OH—OPB): growth. 125000-375000 cells/ml gave no
Concentration with anti clonal effect on sparsely seeded cells ([1]; Exp 20, cross-titration of cell number and dose, 48 hours): 1 µM and 1 to 18 µM
Clonal growth ([1]; Exp 21, 117000 cells per well, Low concentration (see figure), H: area with high cell density): ++(+)
Clonal growth ([1]; Exp 21, High concentration, H: area with high cell density): +
Clonal growth ([1]; Exp 21, High concentration, L: area with low cell density): −
Clonal growth ([1]; Exp 21, Low concentration, L: area with low cell density): +−
Clonal growth ([1]; Exp 21, Medium concentration, H: area with high cell density): ++(+)
Clonal growth ([1]; Exp 21, Medium concentration, L: area with low cell density): −
Growth in dense areas, high concentration ([1]; Exp 22, control inhibitor): absent
Growth in dense areas, medium concentration ([1]; Exp 22, control inhibitor): doubtful
Effect on growth ([1]; Exp 23, 180000 S100T1 cells/well): complete inhibition of clonal growth in sparsely seeded areas
Clonal growth in densely seeded areas at high or medium concentrations (9 and 3 μM) ([1]; Exp 24, control): reduced clonal growth
Effect at 0.11 μM ([1]; Exp 24, control): The effect was gone
Effect at 0.11 μM ([1]; Exp 25, control): no growth inhibition was observed
Effect at 3 μM ([1]; Exp 25, control): substantial inhibition of the growth in densely seeded areas
Densely seeded parts of the gradient, high concentration ([1]; Exp 26, read after 24 hours): did not affect the densely seeded parts of the gradient
Inhibition of sparsely seeded cells, high and medium concentrations ([1]; Exp 26, read after 24 hours): nice and complete inhibition
Sparsely seeded cells, low concentration ([1]; Exp 26, read after 24 hours): break through of clonal growth
Significance ([1]; a: close to densely seeded cell areas, High: Colchicine 1, Podophyllotoxin 3, Etoposide 200, 4-OH—OPB 6.7 μM in wells, DMSO 29.2 μl): Probably
Significance ([1]; a: close to densely seeded cell areas, Low: Colchicine 0.1, Podophyllotoxin 0.3, Etoposide 20, 4-OH—OPB 0.67 μM in wells, DMSO 1.16 μl): No
Significance ([1]; a: close to densely seeded cell areas, Medium: Colchicine 0.3, Podophyllotoxin 0.9, Etoposide 60, 4-OH—OPB 2 μM in wells, DMSO 6.8 μl): No
Significance ([1]; b: sparsely seeded areas, High: Colchicine 1, Podophyllotoxin 3, Etoposide 200, 4-OH—OPB 6.7 μM in wells, DMSO 29.2 μl): Yes
Significance ([1]; b: sparsely seeded areas, Low: Colchicine 0.1, Podophyllotoxin 0.3, Etoposide 20, 4-OH—OPB 0.67 μM in wells, DMSO 1.16 μl): No
Significance ([1]; b: sparsely seeded areas, Medium: Colchicine 0.3, Podophyllotoxin 0.9, Etoposide 60, 4-OH—OPB 2 μM in wells, DMSO 6.8 μl): Yes
Clonal growth ([1]; Experiment 22, H: area with high cell density, High concentration): −
Clonal growth ([1]; Experiment 22, H: area with high cell density, Low concentration): ++
Clonal growth ([1]; Experiment 22, H: area with high cell density, Medium concentration): (+)
Clonal growth ([1]; Experiment 22, L: area with low cell density, High concentration): −
Clonal growth ([1]; Experiment 22, L: area with low cell density, Low concentration): −
Clonal growth ([1]; Experiment 22, L: area with low cell density, Medium concentration): −
Clonal growth ([1]; Experiment 23, A (area with high cell density), High concentration, 48 hours): (+)
Clonal growth ([1]; Experiment 23, A (area with high cell density), Low concentration, 48 hours): ++(+)
Clonal growth ([1]; Experiment 23, A (area with high cell density), Medium concentration, 48 hours): +
Clonal growth ([1]; Experiment 23, B (area with low cell density), High concentration, 48 hours): −
Clonal growth ([1]; Experiment 23, B (area with low cell density), Low concentration, 48 hours): −
Clonal growth ([1]; Experiment 23, B (area with low cell density), Medium concentration, 48 hours): −
Clonal growth ([1]; Experiment 24, H: area with high cell density, High concentration, 48 hours): +
Clonal growth ([1]; Experiment 24, H: area with high cell density, Low concentration, 48 hours): ++(+)
Clonal growth ([1]; Experiment 24, H: area with high cell density, Medium concentration, 48 hours): +
Clonal growth ([1]; Experiment 24, H: area with high cell density, X-low concentration, 48 hours): +(+)
Clonal growth ([1]; Experiment 24, H: area with high cell density, XX-low concentration, 48 hours): ++
Clonal growth ([1]; Experiment 24, L: area with low cell density, High concentration, 48 hours): −
Clonal growth ([1]; Experiment 24, L: area with low cell density, Low concentration, 48 hours): −
Clonal growth ([1]; Experiment 24, L: area with low cell density, Medium concentration, 48 hours): −
Clonal growth ([1]; Experiment 24, L: area with low cell density, X-low concentration, 48 hours): −
Clonal growth ([1]; Experiment 24, L: area with low cell density, XX-low concentration, 48 hours): (+)
Clonal growth ([1]; Experiment 25, H: area with high cell density, High concentration, after 48 hours incubation): (+)
Clonal growth ([1]; Experiment 25, H: area with high cell density, Low concentration, after 48 hours incubation): ++(+)
Clonal growth ([1]; Experiment 25, H: area with high cell density, Medium concentration, after 48 hours incubation): ++
Clonal growth ([1]; Experiment 25, H: area with high cell density, X-low concentration, after 48 hours incubation): ++
Clonal growth ([1]; Experiment 25, L: area with low cell density, High concentration, after 48 hours incubation): −
Clonal growth ([1]; Experiment 25, L: area with low cell density, Low concentration, after 48 hours incubation): −
Clonal growth ([1]; Experiment 25, L: area with low cell density, Medium concentration, after 48 hours incubation): −
Clonal growth ([1]; Experiment 25, L: area with low cell density, X-low concentration, after 48 hours incubation): ++
Resulting clonal growth of treated cultures ([1]; H: area with high cell density, High concentration, read after 24 hours): ++
Resulting clonal growth of treated cultures ([1]; H: area with high cell density, Low concentration, read after 24 hours): ++
Resulting clonal growth of treated cultures ([1]; H: area with high cell density, Medium concentration, read after 24 hours): ++
Resulting clonal growth of treated cultures ([1]; L: area with low cell density, High concentration, read after 24 hours): −
Resulting clonal growth of treated cultures ([1]; L: area with low cell density, Low concentration, read after 24 hours): (+)
Resulting clonal growth of treated cultures ([1]; L: area with low cell density, Medium concentration, read after 24 hours): −
Control of metastatic cells leaving tumour ([1]; ability of cells to leave a tumour, grow and infiltrate locally or grow in sparsely seeded areas, concluded from Exp 17): yes
Control of settlement of metastatic cells ([1]; single cells or very few cells spread to distant sites, concluded from Exp 17): completely
Toxicity for body or dense cell populations ([1]; supposed main advantages or disadvantages if used in cancer treatment, concluded from Exp 17): none or small
Tolerating long duration of treatment ([1]; supposed, if used in cancer treatment): yes
